Test results from patent US20040058868A1, “Methods for identification of compounds modulating insulin resistance” (priority 2002, published 2004).

Tests used:
[1] = system: IRS-1 tyrosine phosphorylation in MCF-7 cells; assay: IRS-1 tyrosine phosphorylation: immunoprecipitation with anti-IRS-1, western blot with anti-phospho-tyrosine antibodies; type: cell-based, human; settings: insulin 10 min, FIG. 3
Description: FIG. 3 illustrates immunoprecipitation of IRS-1 and detection of antiphosphotyrosine. MCF-7 cells were treated as follows: lane 1: insulin 10 min; lane 2: PMA & TSA for 4 h and insulin 10 min; lane 3: PMA for 4 h and insulin 10 min; lane 4: PMA & TSA for 4 h; lane 5: PMA for 4 h; lane 6: control (vehicle);
(§1) To further validate the IRS-1/HDAC2 interaction, several mammalian cell lines were used. MCF-7 is a human breast adenocarcinoma cell line, HepG2 is a hepatocellular carcinoma cell line and L6 is a rat skeletal muscle cell line. The MCF-7 cell line was chosen since these cells have a high endogenous production of IRS-1. Cells were grown to confluency, treated with IGF-1 or PMA ([…]) for different lengths of time and then harvested in hypotonic cell lysis buffer (comprising 20 mM Hepes, pH 7.6, 20% glycerol, 10 mM NaCl, 1.5 mM MgCl2, 0.2 mM EDTA, 0.1% NP40, 25 mM NaF, 25 mM β-glycerophosphate, 1 mM DTT, 1 mM Na orthovanadate with protease inhibitors). All precleared fractions were matched for protein content and then immunoprecipitated with anti-IRS-1 antibody. […] A similar. experiment was performed the other way around, i.e. HDAC2 was immunoprecipitated from the cell extracts and the subsequent membrane was probed with anti-IRS-1 antibodies. […]

IRS-1/HDAC2 interaction [2] = assay: Coimmunoprecipitation of IRS-1 and HDAC2 in MCF-7 cells; type: cell-based, human; settings: MCF-7 cells treated with PMA; IP with anti-IRS-1 or anti-HDAC2
Description: To further validate the IRS-1/HDAC2 interaction, several mammalian cell lines were used. MCF-7 is a human breast adenocarcinoma cell line, HepG2 is a hepatocellular carcinoma cell line and L6 is a rat skeletal muscle cell line. The MCF-7 cell line was chosen since these cells have a high endogenous production of IRS-1. Cells were grown to confluency, treated with IGF-1 or PMA ([…]) for different lengths of time and then harvested in hypotonic cell lysis buffer (comprising 20 mM Hepes, pH 7.6, 20% glycerol, 10 mM NaCl, 1.5 mM MgCl2, 0.2 mM EDTA, 0.1% NP40, 25 mM NaF, 25 mM β-glycerophosphate, 1 mM DTT, 1 mM Na orthovanadate with protease inhibitors). All precleared fractions were matched for protein content and then immunoprecipitated with anti-IRS-1 antibody. […] A similar. experiment was performed the other way around, i.e. HDAC2 was immunoprecipitated from the cell extracts and the subsequent membrane was probed with anti-IRS-1 antibodies.

[3] = clinical trials in humans, reference [26]; cited from earlier work
[4] = system: IRS-1 acetylation in MCF-7 cells; assay: IRS-1 acetylation: immunoprecipitation with anti-IRS-1, western blot with anti-acetyl lysine antibodies; type: cell-based, human; settings: MCF-7 cells treated with TSA
Description: FIG. 2 illustrates immunoprecipitation of IRS-1 and detection of anti-acetyl-lysine. MCF-7 cells were treated as follows: lane 1: IGF-1 for 10 min; lane 2: IGF-1 for 30 min; lane 3: IGF-1 for 1 h; lane 4: IGF-1 for 6 h; lane 5: IGF-1 for 24 h; lane 6: PMA for 6 h; lane 7: PMA for 6 h and IGF-1 for 10 min; lane 8: PMA for 24 h; lane 9: PMA and TSA for 6 h; lane 10: TSA for 6 h; lane 11: control (vehicle).
as §1

IRS-1/HDAC2 interaction [5] = assay: Coimmunoprecipitation of IRS-1 and HDAC2 in L6 cells; type: cell-based, rat; settings: stimulation with insulin
Description: To further validate the IRS-1/HDAC2 interaction, several mammalian cell lines were used. MCF-7 is a human breast adenocarcinoma cell line, HepG2 is a hepatocellular carcinoma cell line and L6 is a rat skeletal muscle cell line. The MCF-7 cell line was chosen since these cells have a high endogenous production of IRS-1. Cells were grown to confluency, […] cell lysis buffer (comprising 20 mM Hepes, pH 7.6, 20% glycerol, 10 mM NaCl, 1.5 mM MgCl2, 0.2 mM EDTA, 0.1% NP40, 25 mM NaF, 25 mM β-glycerophosphate, 1 mM DTT, 1 mM Na orthovanadate with protease inhibitors). All precleared fractions were matched for protein content and then immunoprecipitated with anti-IRS-1 antibody. […] A similar. experiment was performed the other way around, i.e. HDAC2 was immunoprecipitated from the cell extracts and the subsequent membrane was probed with anti-IRS-1 antibodies.

IRS-1/HDAC2 interaction [6] = assay: Coimmunoprecipitation of IRS-1 and HDAC2 in HepG2 cells; type: cell-based; settings: stimulation with insulin
Description: To further validate the IRS-1/HDAC2 interaction, several mammalian cell lines were used. MCF-7 is a human breast adenocarcinoma cell line, HepG2 is a hepatocellular carcinoma cell line and L6 is a rat skeletal muscle cell line. The MCF-7 cell line was chosen since these cells have a high endogenous production of IRS-1. […] All precleared fractions were matched for protein content and then immunoprecipitated with anti-IRS-1 antibody. […] A similar. experiment was performed the other way around, i.e. HDAC2 was immunoprecipitated from the cell extracts and the subsequent membrane was probed with anti-IRS-1 antibodies.

Molecule: CCCCCCCCCCCCCC(=O)O[C@@H]1[C@@H](C)[C@@]2(O)[C@@H](C=C(CO)C[C@]3(O)C(=O)C(C)=C[C@@H]23)[C@@H]2C(C)(C)[C@]12OC(C)=O [PMA, phorbol myristic acid]
- insulin-stimulated tyrosine phosphorylation of IRS-1 (insulin resistance) ([1]; PMA 4 h): makes the cells insulin resistant
- interaction between IRS-1 and HDAC2 (coimmunoprecipitation) (IRS-1/HDAC2 interaction [2]): the interaction is PMA-driven

Molecule: O=C(CCCCCCC(=O)Nc1ccccc1)NO [SAHA, suberoylanilide hydroxamic acid]
- tolerability / toxicity [3]: well-tolerated, are not toxic

Molecule: CC(/C=C/C(=O)NO)=C\[C@@H](C)C(=O)c1ccc(N(C)C)cc1 [TSA, Trichostatin A]
- reversal of PMA-induced insulin resistance (tyrosine phosphorylation of IRS-1) ([1]; PMA and TSA simultaneously 4 h): insulin resistance can to a large extent be remedied
- acetylation of IRS-1 ([4]; FIG. 2): significantly pronounced
- acetylation of IRS-1 ([4]; FIG. 2, listed as Trichostatin A): enhanced

Molecule: insulin: insulin used to stimulate cells
- interaction between IRS-1 and HDAC2 (coimmunoprecipitation) (IRS-1/HDAC2 interaction [5]): not influenced
- interaction between IRS-1 and HDAC2 (coimmunoprecipitation) (IRS-1/HDAC2 interaction [6]): not influenced
